# Target: T1, Solute carrier family 12 member 5 (Homo sapiens, UniProt Q9H2X9)
# T1 sequence (Q9H2X9 whole entry): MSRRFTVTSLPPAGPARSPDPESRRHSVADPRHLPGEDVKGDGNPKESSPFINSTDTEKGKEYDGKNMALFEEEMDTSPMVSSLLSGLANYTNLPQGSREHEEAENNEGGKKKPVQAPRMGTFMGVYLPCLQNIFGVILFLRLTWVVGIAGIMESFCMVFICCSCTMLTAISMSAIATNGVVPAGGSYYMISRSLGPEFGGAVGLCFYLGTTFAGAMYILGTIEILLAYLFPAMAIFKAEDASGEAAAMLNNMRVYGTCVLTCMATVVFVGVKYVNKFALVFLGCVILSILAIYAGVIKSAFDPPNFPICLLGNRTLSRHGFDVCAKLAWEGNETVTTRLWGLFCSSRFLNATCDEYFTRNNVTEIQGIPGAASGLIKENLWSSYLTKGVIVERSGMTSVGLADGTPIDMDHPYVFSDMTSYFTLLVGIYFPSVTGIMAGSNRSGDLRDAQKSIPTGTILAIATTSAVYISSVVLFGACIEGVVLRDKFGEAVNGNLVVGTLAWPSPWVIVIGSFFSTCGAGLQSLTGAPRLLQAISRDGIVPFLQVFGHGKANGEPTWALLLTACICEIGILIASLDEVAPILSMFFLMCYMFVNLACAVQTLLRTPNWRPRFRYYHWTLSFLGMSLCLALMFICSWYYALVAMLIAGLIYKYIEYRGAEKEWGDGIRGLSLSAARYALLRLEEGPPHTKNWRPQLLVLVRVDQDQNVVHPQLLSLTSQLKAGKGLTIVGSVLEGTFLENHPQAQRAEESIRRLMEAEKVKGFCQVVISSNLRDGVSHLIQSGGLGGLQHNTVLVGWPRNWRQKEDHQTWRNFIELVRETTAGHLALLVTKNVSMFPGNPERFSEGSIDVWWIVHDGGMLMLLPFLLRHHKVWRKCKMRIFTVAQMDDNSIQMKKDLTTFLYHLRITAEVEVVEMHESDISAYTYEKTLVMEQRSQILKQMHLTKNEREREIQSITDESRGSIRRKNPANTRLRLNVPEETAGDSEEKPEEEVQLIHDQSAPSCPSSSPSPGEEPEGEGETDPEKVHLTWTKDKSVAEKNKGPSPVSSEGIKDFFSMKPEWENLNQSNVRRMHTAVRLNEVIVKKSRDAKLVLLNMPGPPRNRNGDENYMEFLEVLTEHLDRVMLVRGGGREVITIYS
# Assay: KCC2 modulator potency by thallium flux, dose response, cell-based, HEK293 KCC2, FluoZin-2 fluorescence (AID 1736)
# Conditions: not given
row,SMILES,EC50 [µM]
1,"Cc1nc2cc(C(F)(F)F)ccc2n1C1CCN(Cc2nnnn2Cc2ccc3c(c2)OCO3)CC1 [1-[1-(1-Benzo[1,3]dioxol-5-ylmethyl-1H-tetrazol-5-ylmethyl)-piperidin-4-yl]-2-methyl-5-trifluoromethyl-1H-benzoimidazole]",3.28
2,COc1cc(C(=S)N2CCOCC2)ccc1OC(=O)Cc1ccc(F)cc1 [(2-methoxy-4-morpholin-4-ylcarbothioyl-phenyl) 2-(4-fluorophenyl)ethanoate],8.68
3,CC(=NNC(=O)c1ccc(Br)cc1)c1ccccc1 [MLS000558629],2
4,"N#CC(C(=O)c1cccc(F)c1)c1nc2ccccc2s1 (stereo unspecified) [(2Z)-2-(3H-1,3-benzothiazol-2-ylidene)-3-(3-fluorophenyl)-3-keto-propionitrile]",7.39
5,O=C(CSc1ccccc1C(=O)NCc1ccccc1)NC12CC3CC(CC(C3)C1)C2,6.49
6,"CC1Cc2ccccc2N1C(=O)/C=C/c1cccc(F)c1 (stereo unspecified) [(E)-3-(3-fluorophenyl)-1-(2-methyl-2,3-dihydroindol-1-yl)-2-propen-1-one]",192
7,"Cc1nn(-c2ccc(F)cc2)c(C)c1NS(=O)(=O)c1ccc(Cl)cc1 [4-chloranyl-N-[1-(4-fluorophenyl)-3,5-dimethyl-pyrazol-4-yl]benzenesulfonamide]",3290
8,Cc1[nH]c2ccccc2c1Cc1nnc(S)o1,0.744
9,"COc1ccc(N2C(=S)N=C(Nc3cccc(C)c3)C23CCCCC3)cc1 [1-(4-methoxyphenyl)-4-(3-methylanilino)-1,3-diazaspiro[4.5]dec-3-ene-2-thione]",14.1
10,"CCOC(=O)c1cc2c(ccn2C)n1CC(=O)N1CCC(Cc2ccccc2)CC1 [1-[2-(4-Benzyl-piperidin-1-yl)-2-oxo-ethyl]-4-methyl-1,4-dihydro-pyrrolo[3,2-b]pyrrole-2-carboxylic acid ethyl ester]",10.8
11,Cc1ccc(C2=CSC3=NNC4(CCCCC4)NN23)cc1 [SMR000306481],2.22
12,CC(C)(C)NC(=O)C(c1ccncc1)N(Cc1ccco1)C(=O)c1ccc(-c2ccccc2)[nH]1 (stereo unspecified) [N-[2-(tert-butylamino)-2-oxo-1-pyridin-4-ylethyl]-N-(furan-2-ylmethyl)-5-phenyl-1H-pyrrole-2-carboxamide],19.1
13,S=C(NCc1cccnc1)Nc1ccc(Oc2ccccc2)cc1 [1-(4-phenoxyphenyl)-3-(3-pyridinylmethyl)thiourea],1.19
14,O=C(Cn1nc(-c2ccccc2)ccc1=O)NCc1ccc2c(c1)OCO2 [2-(6-keto-3-phenyl-pyridazin-1-yl)-N-piperonyl-acetamide],1.94
15,COc1ccccc1N1CCN(C(=S)NC(=O)/C=C/c2ccccc2)CC1 [(E)-N-[4-(2-Methoxy-phenyl)-piperazine-1-carbothioyl]-3-phenyl-acrylamide],11.9
16,O=S(=O)(Nc1nc2ccccc2nc1N1CCN(c2ccccn2)CC1)c1ccc(Cl)cc1 [4-chloranyl-N-[3-(4-pyridin-2-ylpiperazin-1-yl)quinoxalin-2-yl]benzenesulfonamide],14.9
17,"Cc1n[nH]c(O)c1C(c1ccc(-c2ccc(F)cc2)o1)c1c(C)n[nH]c1O [4-[[5-(4-fluorophenyl)furan-2-yl]-(3-methyl-5-oxo-1,2-dihydropyrazol-4-yl)methyl]-5-methyl-1,2-dihydropyrazol-3-one]",9.41
18,"Cc1ccc(C)c(C(=O)NC(C)CCc2ccccc2)c1 (stereo unspecified) [2,5-dimethyl-N-(1-methyl-3-phenyl-propyl)benzamide]",7.74
19,CCn1nnnc1SCC(=O)Nc1nc(-c2cccs2)cs1 [2-(1-Ethyl-1H-tetrazol-5-ylsulfanyl)-N-(4-thiophen-2-yl-thiazol-2-yl)-acetamide],3.74
20,"NC(=O)COc1ccccc1/C=C1/SC(=O)N(CC(=O)N2CCc3ccccc3C2)C1=O [2-[2-({3-[2-(3,4-dihydro-2(1H)-isoquinolinyl)-2-oxoethyl]-2,4-dioxo-1,3-thiazolidin-5-ylidene}methyl)phenoxy]acetamide]",10800

row,SMILES,EC50 [µM]
1,"O=C(C1CCN(c2nc3ccc(Br)cc3s2)CC1)N1CCC2(CC1)OCCO2 [8-{[1-(6-bromo-1,3-benzothiazol-2-yl)piperidin-4-yl]carbonyl}-1,4-dioxa-8-azaspiro[4.5]decane]",5.25
2,O=S(=O)(NC1CCCC1)c1cccc(S(=O)(=O)N2CCC(n3nnc4ccccc43)CC2)c1 [3-(4-Benzotriazol-1-yl-piperidine-1-sulfonyl)-N-cyclopentyl-benzenesulfonamide],4.05
3,"COCCN1C(=O)/C(=C/c2ccc(OCc3ccc(C(=O)O)cc3)c(OC)c2)S/C1=N/c1ccccc1 [4-[(2-methoxy-4-{[3-(2-methoxyethyl)-4-oxo-2-(phenylimino)-1,3-thiazolidin-5-ylidene]methyl}phenoxy)methyl]benzoic acid]",27.3
4,O=C(NCCCCc1ccccc1)C1CC(c2ccccc2[N+](=O)[O-])=NO1 (stereo unspecified) [3-(2-nitrophenyl)-N-(4-phenylbutyl)-2-isoxazoline-5-carboxamide],5.52
5,Cc1ccc(NC(=O)CSc2ccc(-c3ccco3)nn2)cc1 [2-[6-(furan-2-yl)pyridazin-3-yl]sulfanyl-N-(4-methylphenyl)acetamide],4.55
6,O=[N+]([O-])c1ccccc1C=C[CH+][N-]n1c(-c2ccc(Cl)cc2)n[nH]c1=S [MLS000555506],15.5
7,CCn1c(CCNC(=O)c2cccs2)nnc1SCC(=O)Nc1nc(-c2ccccc2)cs1 [MLS000548611],19.1
8,"O=C(C1CCN(S(=O)(=O)c2cccc3nsnc23)CC1)N1CCc2ccccc2C1 [2-{[1-(2,1,3-benzothiadiazol-4-ylsulfonyl)piperidin-4-yl]carbonyl}-1,2,3,4-tetrahydroisoquinoline]",23.8
9,Cc1ccc(C(=O)Nc2nc(=O)n(C(=O)c3ccccc3Cl)s2)cc1 [MLS000540480],3
10,Cc1nc(SCc2ccc(F)cc2)c([N+](=O)[O-])[nH]1 [SMR000271028],4.66
11,"Cc1ccc(-c2csc(NC(=O)CCNC(=O)c3ccccc3Cl)n2)cc1 [2-chloranyl-N-[3-[[4-(4-methylphenyl)-1,3-thiazol-2-yl]amino]-3-oxidanylidene-propyl]benzamide]",2.03
12,Cc1nn(-c2ccc(F)cc2)c(C)c1NS(=O)(=O)c1ccc2ccccc2c1 [MLS000565745],2.64
13,CN(Cc1ccccc1)S(=O)(=O)c1ccc(Cl)c(C(=O)NCCc2ccccn2)c1 [2-chloranyl-5-[methyl-(phenylmethyl)sulfamoyl]-N-(2-pyridin-2-ylethyl)benzamide],0.384
14,"Cc1c(N=C2Nc3cccc4cccc2c34)c(=O)n(-c2ccccc2)n1C [4-(2-benzo[cd]indolylamino)-1,5-dimethyl-2-phenyl-3-pyrazolone]",0.733
15,CC1CCN(C(=O)c2ccc(SCc3ccccc3F)c([N+](=O)[O-])c2)CC1 [1-{4-[(2-fluorobenzyl)thio]-3-nitrobenzoyl}-4-methylpiperidine],42.6
16,CSc1ccccc1N=C(S)Nc1ccc(S(N)(=O)=O)cc1 [1-(2-methylsulfanylphenyl)-3-(4-sulfamoylphenyl)thiourea],12.8
17,O=C(O)c1cc(-c2ccc(F)cc2F)ccc1O,3.25
18,Cc1ccc2c(c1)nnn2C1CCN(S(=O)(=O)c2cccc(S(=O)(=O)N(C)C)c2)CC1 [MLS000033642],6.91
19,c1ccc(-c2csc(N=NCc3ccco3)n2)cc1 [(2-furfurylideneamino)-(4-phenylthiazol-2-yl)amine],2.58
20,CC(C)(C)NC(=O)C(c1cccs1)N(CC1CCCO1)C(=O)c1ccc(-c2ccccc2)[nH]1 (stereo unspecified) [N-[2-(tert-butylamino)-2-oxo-1-thiophen-2-ylethyl]-N-(2-oxolanylmethyl)-5-phenyl-1H-pyrrole-2-carboxamide],2.31

# Same assay, conditions: inactive by the depositor's call
row,SMILES,EC50 [µM]
1,C[C@@H](C(=O)Nc1ccc2ccccc2c1)[C@@H]1C[C@@]1(C)[C@@H](NC(=O)c1cccnc1)c1ccccc1 [MLS000563527],16.9
2,"CC1=C(C(=O)OCCOc2ccccc2)C(c2ccsc2)NC(=O)N1C (stereo unspecified) [2-phenoxyethyl 3,4-dimethyl-2-oxo-6-thiophen-3-yl-1,6-dihydropyrimidine-5-carboxylate]",61.2
3,"COc1cc(OC)c(C(=O)/C=C/c2ccccc2)c(O)c1O [(E)-1-(2,3-dihydroxy-4,6-dimethoxy-phenyl)-3-phenyl-prop-2-en-1-one]",486
4,O=C(NCCCCc1ccccc1)C1CC(c2ccccc2C(F)(F)F)=NO1 (stereo unspecified) [MLS000561910],40.9
5,"O=C(COc1ccc2ccccc2c1Br)Nn1cnnc1 [2-(1-bromanylnaphthalen-2-yl)oxy-N-(1,2,4-triazol-4-yl)ethanamide]",459
6,Cc1[nH][nH]c(=O)c1C(c1ccc(-c2ccc(Cl)c(Cl)c2)o1)c1c(C)[nH][nH]c1=O,130
